One test concerns G-HSA induced IL-6. Put plainly: AGE-induced inflammatory response determined by IL-6 ELISA (glycated human serum albumin stimulus). In kind it is cell-based. To be noted: 24 h, read-out: % IL6 production compare to AGE stimulation of IL6 (100%), Compds tested @ 10 uM HAEC, IL6. The method, then:
Human aortic endothelial cells (HAEC, Clonetics) were cultured according to manufacturer in growth medium (Clonetics): basal medium containing human epidermal growth factor, hydrocortisone, vascular endothelial growth factor, heparin binding growth factor-B, long R3-insulin-like growth factor-1, ascorbic acid, gentamicin/amphotericin and 5% FBS. These cell were allowed to reach at least 90% confluency before subjected to experimental treatments. Glycated human serum albumin (G-HSA) was from US Biologicals. Tumor necrosis factor α was from R&D Systems.
Endothelial cells were treated with control medium or medium containing 10 to 100 ng/ml TNF-α or 300 μg/ml glycated-HAS (treated cells or treatments) for 24 hrs, in control and compound-added duplicates, containing 10 μM compound. All treatments, compound-added and controls were carried out in serum free media containing 0.2% albumin. Media from all conditions were collected and used for IL-6 ELISA.
IL-6 ELISA was carried out using human IL-6 DuoSet ELISA development kit as described by manufacturer (R&D Systems). Mouse anti-human Il-6 was used as the capture antibody (2 ug/ml) and biotinylated goat anti-human IL-6 (200 ng/ml) was used as the detection antibody. Culture media were incubated with capture antibody (in 96 well) for 2 h at room temperature. […] Color development was read at 450 nm in a Microplate reader.
In general terms: In an ELISA, binding on a coated surface is turned into a signal by an enzyme label.

The test system of a further test is TNF-α induced IL-6. Put plainly: TNF-α-induced IL-6 production determined by IL-6 ELISA. Format: cell-based. To be noted: Homo sapiens, 24 h. The method, boiled down:
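Human aortic endothelial cells grown to ≥90% confluence, then treated with compounds and stimuli in serum-free medium with 0.2% albumin. Secreted IL-6 in collected media measured by sandwich ELISA (2 ug/ml capture, 200 ng/ml biotinylated detection antibody, streptavidin-HRP), read at 450 nm.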

SMILES strings stand for the structures. Like-named read-outs stand apart in the source and are kept apart here.

For `CCN1CCCC1CNc1nc(Nc2scc(C)c2C(N)=O)nc(NC2CCCCCC2)n1` (centres unmarked) [Compound 39, 2-[(4-(cycloheptylamino)-6-{[(1-ethyl-2-pyrrolidinyl)methyl]amino}-1,3,5-triazin-2-yl)-amino]-4-methyl-3-thiophenecarboxamide], the activity at 10 µM is 26% in the test on G-HSA induced IL-6 (HAEC, 10 uM compound, AGE stimulation = 100%) and 25 to 50% in the test on TNF-α induced IL-6 (Table 5, second part, column 1, class = % of control IL6 production, read-out: Inhibition of TNF-induced IL6, production).
Regarding `CN1CCC(N(C)c2nc(Nc3ccc4ccccc4c3)nc(NC3CC3)n2)CC1` [Compound 180, N-Cyclopropyl-N′-methyl-N′-(1-methyl-piperidin-4-yl)-N″-naphthalen-2-yl-[1,3,5]tri-azine-2,4,6-triamine], the activity at 10 µM in the test on G-HSA induced IL-6 is 5%. The inhibition at 10 µM in the test with TNF-α induced IL-6 (read-out: Inhibition of TNF-induced IL6 production, Table 7, first part) lay in the range of 85 to 100%; in the test on TNF-α induced IL-6 (read-out: Inhibition of TNF-induced IL6 production, Table 7, second part, column 1), 50 to 65%.

One may read the inhibition as the relative decrease from the control value, in per cent.

The record behind these values is patent US7332489B2, “Methods and compositions of novel triazine compounds” (Reddy US Therapeutics, Inc., priority 2003, dated 2008).
